Experiments:
[1] = biological target: HIV-1 protease I84V variant (Human immunodeficiency virus type 1 group M subtype B, UniProt P12497, I572V/Q495K); format: biochemical
[2] = test system: WT HIV-1 strain NL4-3; experiment: Cell-based antiviral assay; details: relative to DRV
[3] = test system: MDR HIV-1 variant VSL20; experiment: Cell-based antiviral assay; details: relative to corresponding isobutyl analogues 12 and 13

Structure (SMILES)	fold less active than DRV against wild-type HIV-1 [2] [fold]	fold loss in potency against VSL20 compared to analogues 12 and 13 [3] [fold]	also measured
CCC(CC)CN(C[C@@H](O)[C@H](Cc1ccccc1)NC(=O)O[C@H]1CO[C@H]2OCC[C@H]21)S(=O)(=O)c1ccc([C@H](O)CO)cc1 [Compound 27, (3R,3aS,6aR)-Hexahydrofuro[2,3-b]furan-3-yl ((2S,3R)-4-((4-((S)-1,2-dihydroxyethyl)-N-(2-ethylbutyl)phenyl)sulfonamido)-3-hydroxy-1-phenylbutan-2-yl)carbamate]	8	–	fold less potent against the protease variants tested than the (R)-epimer 26 ([1]; I84V and I50V/A71V variants, relative to 26): 2–3 fold
CC[C@H](C)CN(C[C@@H](O)[C@H](Cc1ccccc1)NC(=O)O[C@H]1CO[C@H]2OCC[C@H]21)S(=O)(=O)c1ccc([C@H](C)O)cc1 [Compound 14, (3R,3aS,6aR)-Hexahydrofuro[2,3-b]furan-3-yl ((2S,3R)-3-hydroxy-4-((4-((S)-1-hydroxyethyl)-N-((S)-2-methylbutyl)phenyl)sulfonamido)-1-phenylbutan-2-yl)carbamate]	–	2	–
CC(C)CN(C[C@@H](O)[C@H](Cc1ccccc1)NC(=O)O[C@H]1CO[C@H]2OCC[C@H]21)S(=O)(=O)c1ccc([C@H](O)CO)cc1 [Compound 23, (3R,3aS,6aR)-Hexahydrofuro[2,3-b]furan-3-yl ((2S,3R)-4-((4-((S)-1,2-dihydroxyethyl)-N-isobutylphenyl)sulfonamido)-3-hydroxy-1-phenylbutan-2-yl)carbamate]	–	–	fold less active against the I84V protease than the P2′ epimer 22 ([1]; I84V protease, relative to diastereoisomer 22): about 3 fold
CCC(CC)CN(C[C@@H](O)[C@H](Cc1ccccc1)NC(=O)O[C@H]1CO[C@H]2OCC[C@H]21)S(=O)(=O)c1ccc([C@@H](O)CO)cc1 [Compound 26, (3R,3aS,6aR)-Hexahydrofuro[2,3-b]furan-3-yl ((2S,3R)-4-((4-((R)-1,2-dihydroxyethyl)-N-(2-ethylbutyl)phenyl)sulfonamido)-3-hydroxy-1-phenylbutan-2-yl)carbamate]	8	–	–
CC[C@H](C)CN(C[C@@H](O)[C@H](Cc1ccccc1)NC(=O)O[C@H]1CO[C@H]2OCC[C@H]21)S(=O)(=O)c1ccc([C@@H](C)O)cc1 [Compound 15, (3R,3aS,6aR)-Hexahydrofuro[2,3-b]furan-3-yl ((2S,3R)-3-hydroxy-4-((4-((R)-1-hydroxyethyl)-N-((S)-2-methylbutyl)phenyl)sulfonamido)-1-phenylbutan-2-yl)carbamate]	–	2	–
